Test results taken from paper PMC2956624, “Context-Dependent Cell Cycle Checkpoint Abrogation by a Novel Kinase Inhibitor” (PLoS ONE, 2010).

System: HT29 cells
Assay: Flow cytometry cell cycle profiles, HT29
Type: cell-based, human
Settings: for abrogation of DNA damage induced cell cycle arrest: DNA damaging agent 16 hours, then PF-477736 (400 nM) or VX680 (400 nM) 48 hours
Description: Fixed cells were analyzed by flow cytometry.
All cells were harvested, fixed in 70% ethanol and stained with propidium iodide/RNase A. Cell cycle profiles were examined by flow cytometry using a FACSArray cytometer (BD) and FACSDiva software (BD).

Compound: Cn1cc(-c2[nH]c3cc(NC(=O)[C@H](N)C4CCCCC4)cc4c3c2C=NNC4=O)cn1 [PF-477736]
- abrogation of DNA damage induced cell cycle arrest: abrogated DNA damage induced cell cycle arrest

Compound: Cc1cc(Nc2cc(N3CCN(C)CC3)nc(Sc3ccc(NC(=O)C4CC4)cc3)n2)[nH]n1 [VX680]
- cells remaining arrested in G2 or M (100 nM paclitaxel 18 hours, then 24 hours with 200 nM VER-150548 or 400 nM VX680 (DMSO 65.4%)): 28.5%
- abrogation of DNA damage induced cell cycle arrest: unable to override the DNA damage induced arrest
- cell cycle effect as single agent (unperturbed cells, 8 to 48 hours): caused G2/M arrest at early time points and subsequent reduplication following extended incubation
